Assay [1] relates to AsPC-1 cells. Kind of assay: Quantification of apoptotic cells by annexin V-PE labeling in AsPC-1 cells. The assay is classed as cell-based, human. The settings on record: 1 μM orexin-A, 48 hr. How it is done: (§1) FIG. 4A-C. Effect of orexin-A on apoptosis in AsPC-1 cells. A, SHP-2 protein tyrosine phosphatase inhibitor, NSC-87877, blocks orexin-induced apoptosis. AsPC-1 cells were challenged with (black bars) or without (white bars) 1 μM orexin-A for 48 hr in the absence or presence of NSC-87877 (50 μM). Apoptosis was measured by determination of annexin V-PE binding, and results are expressed as the percentage of apoptotic cells; B and C: Indirect immunostaining of activated caspase-3 in AsPC-1 cells in the presence or absence of orexin-A. Paraformaldehyde-fixed AsPC-1 cells were challenged with (orexin-A) or without (basal) 1 μM orexin-A for 48 hr. Activated caspase-3 immunostaining is shown in B and scored in C. Results are means±SE of three separate experiments. ***p<0.001; ns, non-significant.
AsPC-1, SW 1990, HPAF-II and HPAF-II/hOX1R cells (seeded at 5×10^4 cells/well) were grown in 24-well plates for 24 hr under the culture conditions described above. The culture medium was then replaced every 24 hr with fresh medium with or without orexin-A (GL Biochemicals) at a concentration of 1 μM in the presence or absence of the SHP-2 inhibitor, NSC-87877 (50 μM) (Calbiochem, VWR International SAS, France). At the end of the treatment (48 hr), apoptotic cells were determined using the Guava Nexin™ kit (Guava Technologies, Hayward, Calif., USA), which discriminates between apoptotic and non-apoptotic cells (Rouet-Benzineb P, Rouyer-Fessard C, Jarry A, et al. Orexins Acting at Native OX1 Receptor in Colon Cancer and Neuroblastoma Cells or at Recombinant OX1 Receptor Suppress Cell Growth by Inducing Apoptosis. J Biol Chem 2004; 279:45875-86), analyzed with the Guava Personal Cell Analysis (PCA) system (Merck-Millipore, Guyancourt, France), and counted (2,000 events) (Voisin et al, 2008, as above). Results are expressed as the percentage of apoptotic phycoerythrin-labelled Annexin V (Annexin V-PE) positive cells and are the means of 3 independent analyses.

The subject of another assay is parental HPAF-II cells. Kind of assay: Activated caspase-3 immunostaining in parental HPAF-II cells. The format is cell-based, human. Particulars: 1 μM orexin-A, 48 hr. How it is done:
(§2) FIGS. 5A and B. Effect of orexin-A on apoptosis in OX1R expressing recombinant OX1R/HPAF-II cells. A, Parental HPAF-II and recombinant OX1R/HPAF-II cells were challenged with (black bars) or without (white bars) 1 μM orexin-A for 48 hr in the absence or presence of the SHP-2 protein tyrosine phosphatase inhibitor, NSC-87877 (50 μM). Apoptosis was measured by determination of annexin V-PE binding. Results are expressed as the percentage of apoptotic cells, and are the means±SE of three separate experiments. ***p<0.001; ns, non-significant; B, paraformaldehyde-fixed HPAF-II cells and recombinant OX1R/HPAF-II cells were challenged with or without (Basal) 1 μM orexin-A for 48 hr. […]
(§3) After dewaxing, rehydrating tumor paraffin sections, and antigen retrieval by pretreatment with high temperature at pH 9, immunohistochemical procedures were carried out using an automated immunohistochemical stainer according to the manufacturer's guidelines (Bond-Max slide stainer, Menarini, Leica Microsystems). […] OX1R immunostaining was evaluated by two investigators (TV and AC) by calculating a score (0-300) obtained by multiplying the intensity (negative, 0; weak, 1; moderate, 2; and strong, 3) by the percentage of stained cells. The pattern of expression (cytoplasmic, membranous, and nuclear) was also recorded, and a mean score was calculated for each tumor. […]

Assay [2] deals with AsPC-1 cells. Kind of assay: Activated caspase-3 immunostaining in AsPC-1 cells. The settings on record: 1 μM orexin-A, 48 hr. The assay is classed as cell-based, human. How it is done: as §1, with “Results are means±SE of three separate experiments. ***p<0.001; ns, non-significant.” left out
as §3

For assay [3], the system named is recombinant HPAF-II/OX1R cells xenografted in nude mice. Kind of assay: Tumorigenicity assay: recombinant HPAF-II/OX1R cells xenografted in nude mice. The assay is classed as in vivo. How it is done: FIG. 8A-C. Effect of daily inoculation of orexin-A on the growth of tumors developed by xenografting OX1R expressing recombinant HPAF-II cells in nude mice. Parental HPAF-II (A) or recombinant OX1R/HPAF-II/cells (B) were inoculated in the flank of nude mice at day 0. Mice were injected daily intraperitoneally with 100 μl of 1 μmoles of orexin-A/Kg solutions starting at day 0 for both cell lines (◯) or day 28 for OX1R/HPAF-II cells (▴) or with 100 μl of PBS ([…]) for controls. The development of tumors was followed by caliper measurement; C. Formalin-fixed xenografted HPAF-II or OX1R/HPAF-II tumors from nude mice intraperitoneally injected daily or not with 1 μmoles/Kg orexin-A were analyzed by cleaved caspase-3 immunostaining. Cleaved caspase-3 positive cells were counted in 10 different fields, each comprising 500 tumoral cells, in the presence (black bars) or absence (white bars) of 50 days orexin-A treatment. Data are the means±SE of 6 tumors in each group; *** p<0.01 versus control.
Control mice received PBS.
After dewaxing, rehydrating tumor paraffin sections, and antigen retrieval by pretreatment with high temperature at pH 9, immunohistochemical procedures were carried out using an automated immunohistochemical stainer according to the manufacturer's guidelines (Bond-Max slide stainer, Menarini, Leica Microsystems). For immunohistochemistry on cell lines, cells in pellets were fixed in formalin, embedded in cell blocks (Shandon Cytoblock; Thermo Scientific; USA) and cut into 3 μm sections. […] OX1R immunostaining was evaluated by two investigators (TV and AC) by calculating a score (0-300) obtained by multiplying the intensity (negative, 0; weak, 1; moderate, 2; and strong, 3) by the percentage of stained cells. The pattern of expression (cytoplasmic, membranous, and nuclear) was also recorded, and a mean score was calculated for each tumor. […] Cleaved caspase-3 immunostaining was determined by calculating the percentage of tumor cells stained in 10 fields of xenografted tumor cells, each field comprising 500 tumor cells.

For assay [4], the system named is recombinant OX1R/HPAF-II cells. Put plainly: Activated caspase-3 immunostaining in recombinant OX1R/HPAF-II cells. The format is cell-based, human. The settings on record: 1 μM orexin-A, 48 hr. How it is done:
as §2, §3

Consider “orexin-A: 33 amino acid hypothalamic neuropeptide, OX1R agonist, SEQ ID NO:2; peptide from GL Biochemicals”, for which the “percentage of apoptotic cells (annexin V-PE)” value with AsPC-1 cells [1] was 24.3%±1.4. In addition, the caspase-3 activation result is on record as “no activation” with parental HPAF-II cells and “strong caspase-3 activation” in assay [4]. Moreover, the “cleavage and activation of caspase 3” value in the assay with AsPC-1 cells [2] was “induced the cleavage and activation of caspase 3”. For the same substance, the “caspase-3 activation in tumors as compared to tumors from parental HPAF-II cells” value in assay [3] (1 μmoles/Kg daily i.p., 50 days, cleaved caspase-3 positive cells) turned out to be 3.5 fold. Further, the “tumor volumes, treatment of established tumors” value in assay [3] (orexin-A started after 28 days tumor growth) is “significant reduction in tumor volumes”. Also, in assay [3] (treated daily with orexin-A from day 0), the “inhibition of tumor development” value is recorded as “about 65%”.

These data come from patent publication US20150140015A1, “METHODS AND PHARMACEUTICAL COMPOSITIONS FOR THE TREATMENT OF PANCREATIC CANCER” (INSERM (Institut National de la Sante et de la Recherche …, priority 2013, published 2015).
